Data taken from ChEMBL document CHEMBL5120867, “Hernandezine Regulates Proliferation and Autophagy-Induced Apoptosis in Melanoma Cells” (J Nat Prod, 2022).
Calls of active or inactive are those of the source. No cut-off for these calls is given here.

Key:
HepG2 = assay: Cytotoxicity against human HepG2 cells assessed as reduction in cell viability by MTT assay; assay type: functional, cell-based
B16 [1] = assay: Induction of cell cycle arrest in mouse B16 cells assessed as accumulation at G2/M phase at 7 uM incubated for 24 hrs by PI staining based flow cytometry analysis (reference value: 4.70 %); assay type: functional
A-375 [2] = assay: Induction of apoptosis in human A-375 cells assessed as […] of Bax/Mcl-1 protein level at 6 to 8 uM incubated for 24 hrs by Western blot analysis; assay type: functional, cell-based; details: dose 6-8 µM
A-375 [3] = assay: Induction of autophagy in human A-375 cells assessed as decrease in phosphorylated p70S6K level at 7 uM incubated for 6 to 24 hrs by Western blotting analysis; assay type: functional, cell-based; details: time 6-24 hrs
A-375 [4] = assay: Induction of cell cycle arrest in human A-375 cells assessed as accumulation at S phase incubated for 24 hrs in presence of AG490 by PI staining based flow cytometry analysis (reference value: 34.44 %); assay type: functional
A-375 [5] = assay: Induction of cell cycle arrest in human A-375 cells assessed as accumulation at G0/G1 phase at 7 uM incubated for 24 hrs by PI staining based flow cytometry analysis (reference value: 69.68 %); assay type: functional
A-375 [6] = assay: Induction of autophagy in human A-375 cells assessed as increase in phosphorylated ACC at 7 uM incubated for 6 to 24 hrs by Western blotting analysis; assay type: functional, cell-based; details: time 6-24 hrs
A-375 [7] = assay: Induction of apoptosis in human A-375 cells assessed as […] of Bax/Bcl-2 protein level at 6 to 8 uM incubated for 24 hrs by Western blot analysis; assay type: functional, cell-based; details: dose 6-8 µM
A-375 [8] = assay: Induction of apoptosis in human A-375 cells assessed as early apoptotic cells preincubated for 2 hrs with […] followed by compound addition and measured after 24 hrs by Annexin-V-FITC/PI-staining based flow cytometry (reference value: 3.1 %); assay type: functional
A-375 [9] = assay: Induction of apoptosis in human A-375 cells assessed as late apoptotic cells preincubated for 2 hrs with […] followed by compound addition and measured after 24 hrs by Annexin-V-FITC/PI-staining based flow cytometry (reference value: 5.7 %); assay type: functional
A-375 [10] = assay: Induction of apoptosis in human A-375 cells assessed as cytoplasmic shrinkage at 6 to 8 uM incubated for 24 hrs by Hoechst 33258 staining based fluorescence microscopy; assay type: functional, cell-based; details: dose 6-8 µM
B16 [11] = assay: Inhibition of colony formation in mouse B16 cells assessed as reduction in volume of colonies at 5 to 7 uM incubated for 24 hrs followed by replacement with fresh medium and measured after 14 days by crystal violet staining based analysis; assay type: functional, cell-based; details: dose 5-7 µM
A-375 [12] = assay: Induction of apoptosis in human A-375 cells assessed as early apoptotic cells at 6 uM after 24 hrs by Annexin-V-FITC/PI-staining based flow cytometry (reference value: 1.4 %); assay type: functional
A-375 [13] = assay: Induction of apoptosis in human A-375 cells assessed as increase in cleaved caspase 3 expression at 6 to 8 uM incubated for 24 hrs by Western blot analysis; assay type: functional, cell-based; details: dose 6-8 µM
B16 [14] = assay: Induction of cell cycle arrest in mouse B16 cells assessed as accumulation at G0/G1 phase incubated for 24 hrs in presence of AG490 by PI staining based flow cytometry analysis (reference value: 56.59 %); assay type: functional
A-375 [15] = assay: Induction of apoptosis in human A-375 cells assessed as late apoptotic cells preincubated for 2 hrs with 3-MA followed by compound addition and measured after 24 hrs by Annexin-V-FITC/PI-staining based flow cytometry (reference value: 5.7 %); assay type: functional
A-375 [16] = assay: Induction of apoptosis in human A-375 cells assessed as nuclear membrane lysis at 6 to 8 uM incubated for 24 hrs by Hoechst 33258 staining based fluorescence microscopy; assay type: functional, cell-based; details: dose 6-8 µM
B16 [17] = assay: Induction of apoptosis in mouse B16 cells assessed as early apoptotic cells at 6 uM measured after 24 hrs by Annexin-V-FITC/PI-staining based flow cytometry (reference value: 0.5 %); assay type: functional
[18] = biological target: Signal transducer and activator of transcription 3 (Homo sapiens) (UniProt P40763); assay: Inhibition of STAT3 phosphorylation in human A-375 cells assessed as decrease in phosphorylated STAT3 level at 6 to 8 uM measured after 12 to 24 hrs by Western blot analysis; assay type: cell-based; details: dose 6-8 µM, time 12-24 hrs
Signal transducer and activator of transcription 3 (Homo sapiens), sequence (P40763 whole entry): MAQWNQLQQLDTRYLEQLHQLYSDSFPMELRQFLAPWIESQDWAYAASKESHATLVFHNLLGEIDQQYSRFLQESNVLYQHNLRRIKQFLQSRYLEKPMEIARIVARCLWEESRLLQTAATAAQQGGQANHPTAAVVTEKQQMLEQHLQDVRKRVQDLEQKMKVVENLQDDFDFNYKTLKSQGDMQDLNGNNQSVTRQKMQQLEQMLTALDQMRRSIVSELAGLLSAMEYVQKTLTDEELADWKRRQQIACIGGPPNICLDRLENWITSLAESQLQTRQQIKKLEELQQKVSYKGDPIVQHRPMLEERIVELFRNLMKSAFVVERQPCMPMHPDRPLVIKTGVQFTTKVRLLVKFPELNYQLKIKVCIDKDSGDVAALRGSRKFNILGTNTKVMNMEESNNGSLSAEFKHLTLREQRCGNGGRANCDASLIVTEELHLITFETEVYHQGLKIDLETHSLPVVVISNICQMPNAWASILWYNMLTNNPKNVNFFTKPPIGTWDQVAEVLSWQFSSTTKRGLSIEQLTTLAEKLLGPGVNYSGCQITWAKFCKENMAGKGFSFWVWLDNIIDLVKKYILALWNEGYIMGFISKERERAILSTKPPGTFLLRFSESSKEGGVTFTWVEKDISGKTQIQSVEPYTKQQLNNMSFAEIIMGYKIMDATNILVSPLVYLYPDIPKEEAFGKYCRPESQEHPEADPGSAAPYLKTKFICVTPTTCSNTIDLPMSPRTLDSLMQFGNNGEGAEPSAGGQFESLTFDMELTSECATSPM

B16 [19] = assay: Induction of cell cycle arrest in mouse B16 cells assessed as accumulation at S phase at 5 uM incubated for 24 hrs by PI staining based flow cytometry analysis (reference value: 33.46 %); assay type: functional
A-375 [20] = assay: Induction of cell cycle arrest in human A-375 cells assessed as accumulation at S phase at 8 uM incubated for 24 hrs by PI staining based flow cytometry analysis (reference value: 28.83 %); assay type: functional
B16 [21] = assay: Induction of apoptosis in mouse B16 cells assessed as late apoptotic cells preincubated for 2 hrs with 3-MA followed by compound addition and measured after 24 hrs by Annexin-V-FITC/PI-staining based flow cytometry (reference value: 5.7 %); assay type: functional
A-375 [22] = assay: Induction of cell cycle arrest in human A-375 cells assessed as accumulation at G0/G1 phase at 6 uM incubated for 24 hrs by PI staining based flow cytometry analysis (reference value: 69.68 %); assay type: functional
B16 [23] = assay: Induction of cell cycle arrest in mouse B16 cells assessed as accumulation at G2/M phase incubated for 24 hrs in presence of AG490 by PI staining based flow cytometry analysis (reference value: 0.88 %); assay type: functional
[24] = biological target: Tyrosine-protein kinase JAK2 (Homo sapiens) (UniProt O60674); assay: Inhibition of JAK2 phosphorylation in human A-375 cells assessed as decrease in phosphorylated JAK2 level at 6 to 8 uM measured after 12 to 24 hrs by Western blot analysis; assay type: cell-based; details: dose 6-8 µM, time 12-24 hrs
Tyrosine-protein kinase JAK2 (Homo sapiens), sequence (O60674 whole entry): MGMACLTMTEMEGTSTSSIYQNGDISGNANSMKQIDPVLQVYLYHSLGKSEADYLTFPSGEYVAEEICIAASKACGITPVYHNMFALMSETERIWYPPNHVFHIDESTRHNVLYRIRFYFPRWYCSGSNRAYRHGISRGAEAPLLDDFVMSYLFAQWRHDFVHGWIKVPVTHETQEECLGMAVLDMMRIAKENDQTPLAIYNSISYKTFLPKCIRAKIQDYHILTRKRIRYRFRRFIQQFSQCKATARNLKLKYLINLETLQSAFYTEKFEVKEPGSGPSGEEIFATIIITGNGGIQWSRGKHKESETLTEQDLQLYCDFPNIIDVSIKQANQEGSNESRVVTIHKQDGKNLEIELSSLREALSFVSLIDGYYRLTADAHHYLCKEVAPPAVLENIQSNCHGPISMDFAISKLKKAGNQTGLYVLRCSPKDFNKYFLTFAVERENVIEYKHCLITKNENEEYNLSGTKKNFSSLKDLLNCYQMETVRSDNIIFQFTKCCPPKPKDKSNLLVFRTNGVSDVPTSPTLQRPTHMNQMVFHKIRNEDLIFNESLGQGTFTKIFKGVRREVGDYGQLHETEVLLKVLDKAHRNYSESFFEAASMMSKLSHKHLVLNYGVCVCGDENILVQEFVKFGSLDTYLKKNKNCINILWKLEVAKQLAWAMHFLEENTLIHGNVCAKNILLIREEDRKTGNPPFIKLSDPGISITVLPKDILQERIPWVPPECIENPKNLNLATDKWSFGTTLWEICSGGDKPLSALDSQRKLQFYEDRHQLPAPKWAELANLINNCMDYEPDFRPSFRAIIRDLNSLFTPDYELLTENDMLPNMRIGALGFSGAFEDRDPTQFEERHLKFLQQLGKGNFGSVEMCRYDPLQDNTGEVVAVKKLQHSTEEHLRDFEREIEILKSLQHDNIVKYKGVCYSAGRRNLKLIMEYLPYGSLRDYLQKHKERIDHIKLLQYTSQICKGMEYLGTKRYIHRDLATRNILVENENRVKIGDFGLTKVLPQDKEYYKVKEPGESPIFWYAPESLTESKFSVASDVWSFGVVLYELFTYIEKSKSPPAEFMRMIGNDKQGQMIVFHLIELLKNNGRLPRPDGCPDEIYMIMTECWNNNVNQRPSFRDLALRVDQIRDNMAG

B16 [25] = assay: Induction of cell cycle arrest in mouse B16 cells assessed as accumulation at S phase incubated for 24 hrs in presence of AG490 by PI staining based flow cytometry analysis (reference value: 42.53 %); assay type: functional
Hep 3B2 = assay: Cytotoxicity against human Hep3B cells assessed as reduction in cell viability by MTT assay; assay type: functional, cell-based
B16 [26] = assay: Induction of apoptosis in mouse B16 cells assessed as early apoptotic cells at 7 uM measured after 24 hrs by Annexin-V-FITC/PI-staining based flow cytometry (reference value: 0.5 %); assay type: functional
A-375 [27] = assay: Induction of apoptosis in human A-375 cells assessed as late apoptotic cells after 24 hrs by Annexin-V-FITC/PI-staining based flow cytometry (reference value: 5.7 %); assay type: functional
B16 [28] = assay: Induction of cell cycle arrest in mouse B16 cells assessed as accumulation at G0/G1 phase at 5 uM incubated for 24 hrs by PI staining based flow cytometry analysis (reference value: 61.83 %); assay type: functional
A-375 [29] = assay: Induction of apoptosis in human A-375 cells assessed as early apoptotic cells at 8 uM after 24 hrs by Annexin-V-FITC/PI-staining based flow cytometry (reference value: 1.4 %); assay type: functional
B16 [30] = assay: Induction of cell cycle arrest in mouse B16 cells assessed as accumulation at G0/G1 phase at 6 uM incubated for 24 hrs by PI staining based flow cytometry analysis (reference value: 61.83 %); assay type: functional
A-375 [31] = assay: Induction of apoptosis in human A-375 cells assessed as increase in cleaved caspase 9 expression at 6 to 8 uM incubated for 24 hrs by Western blot analysis; assay type: functional, cell-based; details: dose 6-8 µM

Question: For COc1ccc2cc1Oc1ccc(cc1)C[C@H]1c3cc(c(OC)cc3CCN1C)Oc1c(OC)c(OC)c(OC)c3c1[C@H](C2)N(C)CC3 [HERNANDEZINE], which IC50 (HepG2) is on record?
Answer: 7.42 µM

Question: And the Activity (B16 [1])?
Answer: 2.98%

Question: And the Activity (A-375 [2])?
Answer: Active

Question: And the Activity (A-375 [3])?
Answer: Active

Question: What about the Activity (A-375 [4]) of the same compound?
Answer: 24.36%

Question: What about the Activity (A-375 [5]) of the same compound?
Answer: 76.87%

Question: And the Activity (A-375 [6])?
Answer: Active

Question: And the Activity (A-375 [7])?
Answer: Active

Question: And the Activity (A-375 [8])?
Answer: 34.8%

Question: What about the Activity (A-375 [9]) of the same compound?
Answer: 23.9%

Question: And the Activity (A-375 [10])?
Answer: Active

Question: What about the inhibition (B16 [11]) of the same compound?
Answer: Active

Question: What about the Activity (A-375 [12]) of the same compound?
Answer: 4.1%

Question: And the Activity (A-375 [13])?
Answer: Active

Question: What about the Activity (B16 [14]) of the same compound?
Answer: 84.61%

Question: What about the Activity (A-375 [15]) of the same compound?
Answer: 27.1%

Question: What about the Activity (A-375 [16]) of the same compound?
Answer: Active

Question: What about the Activity (B16 [17]) of the same compound?
Answer: 12.9%

Question: And the inhibition [18]?
Answer: Active

Question: What about the Activity (B16 [19]) of the same compound?
Answer: 23.42%

Question: And the Activity (A-375 [20])?
Answer: 19.2%

Question: What about the Activity (B16 [21]) of the same compound?
Answer: 14.5%

Question: What about the Activity (A-375 [22]) of the same compound?
Answer: 76.28%

Question: What about the Activity (B16 [23]) of the same compound?
Answer: 8.47%

Question: What about the inhibition [24] of the same compound?
Answer: Active

Question: And the Activity (B16 [25])?
Answer: 6.92%

Question: What about the IC50 (Hep 3B2) of the same compound?
Answer: 6.71 µM

Question: And the Activity (B16 [26])?
Answer: 16.4%

Question: And the Activity (A-375 [27])?
Answer: 48.1%

Question: And the Activity (B16 [28])?
Answer: 72%

Question: And the Activity (A-375 [29])?
Answer: 18.2%

Question: And the Activity (B16 [30])?
Answer: 72.89%

Question: And the Activity (A-375 [31])?
Answer: Active
